Assay results: paper PMC11413853, “Discovery of VU6007496: Challenges in the Development of an M1 Positive Allosteric Modulator Backup Candidate” (ACS Chemical Neuroscience, 2024)
pEC50: −log10 of the molar value. Like-named read-outs stand apart in the source and are kept apart here.

Experiments:
[1] = test system: mice; assay: Mouse phenotypic seizure liability assay (modified Racine score); type: in vivo; settings: 100 mg/kg i.p., male C57Bl/6 mice, 3 h
Procedure: Brain plasma concentration ratio (Kp) was calculated by dividing brain concentration by plasma concentration for each animal. Unbound brain to unbound plasma concentration ratio (Kp,uu) is calculated using the following formula: Kp,uu = (Brain ng/g x brain fu)/(plasma ng/ml x plasma fu). […]
Behavioral Manifestations of Seizure Activity
To evaluate induction of behavioral manifestation of seizure activity, C57Bl/6 mice received administration of vehicle or 100 mg/kg M1 PAM. Compounds were formulated in 30% Captisol (11) or 10% Tween 80 (2-4 and 12) (pH 7.0) at a concentration of 10 mg/mL and injected i.p. (n = 3). Animals were monitored continuously and scored for behavioral manifestations of seizure activity at 5, 10, 15, and 30 min, and 1 and 3 h. Behavioral manifestations of seizures were scored using a modified Racine scoring system.2 Briefly, a score of 0 represents no behavior alterations; score 1, immobility, mouth and facial movements, or facial clonus; score 2, head nodding, tail extension; score 3, forelimb clonus, repetitive movements; score 4, rearing and tonic clonic seizure; and score 5, continuous rearing and falling, severe generalized tonic clonic seizure.

[2] = target: T1, human M1 (Homo sapiens, UniProt P11229); assay: Calcium mobilization assay, human M1 (agonist and PAM modes); type: cell-based
T1 sequence (P11229 1-460): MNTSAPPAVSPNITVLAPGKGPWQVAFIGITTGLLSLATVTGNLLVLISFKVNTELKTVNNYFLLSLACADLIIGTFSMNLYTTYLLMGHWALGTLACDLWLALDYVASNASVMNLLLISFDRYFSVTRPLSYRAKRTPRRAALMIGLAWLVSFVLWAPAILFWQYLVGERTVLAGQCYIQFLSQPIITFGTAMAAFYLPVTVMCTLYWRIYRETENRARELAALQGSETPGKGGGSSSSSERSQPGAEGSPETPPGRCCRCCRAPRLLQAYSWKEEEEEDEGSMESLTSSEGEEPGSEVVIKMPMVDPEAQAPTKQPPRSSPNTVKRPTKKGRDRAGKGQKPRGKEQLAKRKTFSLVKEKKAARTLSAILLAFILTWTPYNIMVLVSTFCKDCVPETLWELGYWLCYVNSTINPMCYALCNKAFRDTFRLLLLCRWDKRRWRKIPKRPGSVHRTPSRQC

[3] = Rat plasma and brain exposure, 100 mg/kg i.p., 3 h; type: in vivo; settings: brain and plasma, ip, 100 mg/kg i.p.
From the text: Due to the prevalence of metabolite A (VU6036463, 24) in both in vitro preparations and in vivo, we first synthesized and characterized 24. Utilizing intermediate 19 (Scheme 3), a Suzuki coupling with benzyl chloride 28 afforded a mixture of N-Boc protected analog 29 and N-H analog 29a in moderate isolated yield. Hydrolysis of the nitriles to the carboxylic acid, followed by a HATU-mediated coupling with tetrahydro-2H-pyran-4-amine delivered 24 in 81% yield over the two steps.[21] In our kinetic assays, 24 was an “active” metabolite, with the profile of an M1 ago-PAM. […] To ascertain if 24 could be the source of the adverse cholinergic events in rats, we dosed 11 and 24, in parallel, at a dose of 100 mg/kg i.p. in 30% captisol and prepared plasma and brain samples at a 3-h time point to determine brain exposure of the M1 ago-PAM 24. In this study, 11 achieved a total plasma concentration of 3.6 μM and a total brain concentration of 0.93 μM (Kp = 0.26).

Compound: Cn1ccc(-c2ccc(Cn3cc(C(=O)N[C@H]4CCOC[C@@H]4O)c4ncccc43)cc2)n1 [compound 4, reference compound]
- seizure liability / behavioral convulsions (modified Racine score) [1]: robust behavioral convulsions

Compound: Cc1ccc(Cc2cc3c(=O)n([C@H]4CCCC[C@@H]4O)cnc3c3ccccc23)cn1 [compound 3, reference compound]
- seizure liability / behavioral convulsions (modified Racine score) [1]: robust behavioral convulsions

Compound: Cn1ccc(-c2ccc(Cc3cc(C(=O)N[C@H]4CCOC[C@@H]4O)nc4ccn(C)c34)cc2)n1 [compound 30]
- hM1 PAM AChmax (%) ([2]; PAM mode, % ACh max): 71%
- pEC50 ([2]; PAM mode, read-out: hM1 PAM EC50): 8.31
- hM1 Agonist AChmax (%) ([2]; agonist mode, % ACh max): 60%
- pEC50 ([2]; agonist mode, read-out: hM1 Agonist EC50): 6.75
- Kp at 3 h [3]: 0.38
